# Target: Protein farnesyltransferase subunit beta/geranylgeranyltransferase type-1 subunit alpha (Bos taurus, UniProt P29702+P49355)
# Assay: FTase Activity Assay
# Details: pH 7.5; 37 °C
# Protocol: The in vitro activity of compounds inhibiting FTase was determined by measuring the transfer of [3H]-FPP to substrate Ha-Ras-CVLS. The incorporated radioactivity was quantified by scintillation counting.
row,Structure (SMILES),IC50
1,Cn1cncc1C(O)(c1ccc(Cl)cc1)c1ccc2ccn(-c3cccc4ccccc34)c2c1 (configuration not stated) [(4-chlorophenyl)(1-methyl-1H-imidazol-5-yl)[1-(naphthalen-1-yl)-1H-indol-6-yl]methanol],200 nM
2,Cn1cncc1C(O)(c1ccc(Cl)cc1)c1ccc2ccn(-c3cccc(Cl)c3)c2c1 (configuration not stated) [(4-chlorophenyl)[1-(3-chlorophenyl)-1H-indol-6-yl](1-methyl-1H-imidazol-5-yl)methanol],36 nM

# Reference: BindingDB's records for doi:10.1016/j.bmcl.2005.03.049 (Abbott Laboratories, 2005)
